pIC50: −log10 of the molar value. Bridge positions count the residues as written; N and C are the ends. Square brackets hold non-standard residues; d marks the D form. Peptide text beside a SMILES is read from it. * marks the point of attachment. Bip = N[C@@H](Cc1ccc(-c2ccccc2)cc1)C(=O)O; Phe(3-Me) = Cc1cccc(C[C@H](N)C(=O)O)c1; Cha = N[C@@H](CC1CCCCC1)C(=O)O; Cit = NC(=O)NCCC[C@H](N)C(=O)O; Tle = CC(C)(C)[C@H](N)C(=O)O; Carboxymethyl = O=C(O)C*; Orn = NCCC[C@H](N)C(=O)O; Aun = NCCCCCCCCCCC(=O)O; Dab = NCC[C@H](N)C(=O)O; Dap = NC[C@H](N)C(=O)O; Sar = CNCC(=O)O
Molecular target: T1, PD-1/PD-L1 interaction (PE-labeled human PD-L1-Ig binding to Jurkat cell line over-expressing human PD-1) (Homo sapiens, UniProt Q15116)
T1 construct: expressed in transfected cells; host or cells: Jurkat
Assay: Jurkat-PD-1 Cell Binding High-Content Screening Assay (CBA)
Format: cell-based
Details: Jurkat cell line over-expressing human PD-1; PE-labeled PD-L1-Ig 20 nM final; read-out: Jurkat hPD1-PDL1 IC50
Summary of the method: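 Jurkat cells over-expressing human PD-1 (8×10^3 per well, DMEM/10% FCS) preincubated with compound 2 h at 37° C, then PE-labeled human PD-L1-Ig (20 nM final) added for 1 h. Cells fixed with paraformaldehyde, Hoechst-stained, and bound fluorescence quantified by high-content imaging.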

T1 sequence (Q15116 25-288): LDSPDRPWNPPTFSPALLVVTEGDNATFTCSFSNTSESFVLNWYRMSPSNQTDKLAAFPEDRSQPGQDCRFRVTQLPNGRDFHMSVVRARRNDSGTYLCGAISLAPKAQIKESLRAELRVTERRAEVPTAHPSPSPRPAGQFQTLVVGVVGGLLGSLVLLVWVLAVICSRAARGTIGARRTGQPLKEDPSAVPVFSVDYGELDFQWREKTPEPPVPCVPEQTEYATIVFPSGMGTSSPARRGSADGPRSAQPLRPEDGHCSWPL

pIC50	SMILES
8.28	Cc1cccc(C[C@@H]2NC(=O)[C@H](CC(=O)O)NC(=O)[C@H](Cc3ccc(OCC(=O)O)cc3)NC(=O)[C@H](CCCNC(=N)N)NC(=O)CSC[C@@H](C(=O)N[C@@H](CCN)C(=O)NCCCCCCCCCCC(=O)O)NC(=O)[C@H]([C@@H](C)O)NC(=O)[C@H](C(C)C)NC(=O)[C@H](CC3CCCCC3)NC(=O)[C@H](CCN)NC(=O)[C@@H](CC(C)C)NC(=O)[C@H](CCCN)NC(=O)[C@H](CCCNC(N)=O)NC(=O)[C@H](Cc3ccc(-c4ccccc4)cc3)NC(=O)[C@H](Cc3ccc(O)cc3)NC2=O)c1 [Compound 2833] ({CH2CO}-RY(Carboxymethyl)D[Phe(3-Me)]Y[Bip][Cit][Orn][dL][Dab][Cha]VTC[Dab][Aun]-OH; thioether N-14)
7.69	CC(C)C[C@H]1NC(=O)[C@H](CCCN)NC(=O)[C@H](CCCNC(N)=O)NC(=O)[C@H](Cc2ccc(-c3ccccc3)cc2)NC(=O)[C@H](Cc2ccc(O)cc2)NC(=O)[C@H](Cc2c[nH]c3ccccc23)NC(=O)[C@H](CC(=O)O)NC(=O)[C@H](Cc2ccc(OCC(=O)O)cc2)NC(=O)[C@H](CCCNC(=N)N)NC(=O)CSC[C@@H](C(=O)N[C@@H](CCN)C(=O)NCCCCCCCCCCC(=O)O)NC(=O)[C@H]([C@@H](C)O)NC(=O)[C@H](C(C)C)NC(=O)[C@H](CC2CCCCC2)NC(=O)[C@H](CCN)NC1=O [Compound 2834] ({CH2CO}-RY(Carboxymethyl)DWY[Bip][Cit][Orn][dL][Dab][Cha]VTC[Dab][Aun]-OH; thioether N-14)
7.72	Cc1cccc(C[C@@H]2NC(=O)[C@H](CC(=O)O)NC(=O)[C@H](Cc3ccc(OCC(=O)O)cc3)NC(=O)[C@H](CCCNC(=N)N)NC(=O)CSC[C@@H](C(=O)N[C@@H](CCCN)C(=O)NCCCCCCCCCCC(=O)O)NC(=O)[C@H]([C@@H](C)O)NC(=O)[C@H](C(C)C)NC(=O)[C@H](CC3CCCCC3)NC(=O)[C@H](CCN)NC(=O)[C@@H](CC(C)C)NC(=O)[C@H](CCCN)NC(=O)[C@H](CCCNC(N)=O)NC(=O)[C@H](Cc3ccc(-c4ccccc4)cc3)NC(=O)[C@H](Cc3ccc(O)cc3)NC2=O)c1 [Compound 2835] ({CH2CO}-RY(Carboxymethyl)D[Phe(3-Me)]Y[Bip][Cit][Orn][dL][Dab][Cha]VTC[Orn][Aun]-OH; thioether N-14)
7.79	Cc1cccc(C[C@@H]2NC(=O)[C@H](CC(=O)O)NC(=O)[C@H](Cc3ccc(OCC(=O)O)cc3)NC(=O)[C@H](CCCNC(=N)N)NC(=O)CSC[C@@H](C(=O)N[C@@H](CCN)C(=O)NCCCCCCCCCCC(=O)O)NC(=O)[C@H]([C@@H](C)O)NC(=O)[C@H](C(C)C)NC(=O)[C@H](CC3CCCCC3)NC(=O)[C@H](CCN)NC(=O)[C@@H](CC(C)C)NC(=O)[C@H](CCCN)NC(=O)[C@H](CCCNC(N)=O)NC(=O)[C@H](Cc3ccc(-c4ccccc4)cc3)NC(=O)[C@H](Cc3ccc(OCC(=O)O)cc3)NC2=O)c1 [Compound 2836] ({CH2CO}-RY(Carboxymethyl)D[Phe(3-Me)]Y(Carboxymethyl)[Bip][Cit][Orn][dL][Dab][Cha]VTC[Dab][Aun]-OH; thioether N-14)
7.52	Cc1cccc(C[C@@H]2NC(=O)[C@H](CC(=O)O)NC(=O)[C@H](Cc3ccc(OCC(=O)O)cc3)NC(=O)[C@H](CCCNC(=N)N)NC(=O)CSC[C@@H](C(=O)N[C@@H](CCCN)C(=O)NCCCCCCCCCCC(=O)O)NC(=O)[C@H]([C@@H](C)O)NC(=O)[C@H](C(C)C)NC(=O)[C@H](CC3CCCCC3)NC(=O)[C@H](CCN)NC(=O)[C@@H](CC(C)C)NC(=O)[C@H](CCCNC(N)=O)NC(=O)[C@H](Cc3ccc(OCC(=O)O)cc3)NC(=O)[C@H](Cc3ccc(-c4ccccc4)cc3)NC(=O)[C@H](Cc3ccc(OCC(=O)O)cc3)NC2=O)c1 [Compound 2838] ({CH2CO}-RY(Carboxymethyl)D[Phe(3-Me)]Y(Carboxymethyl)[Bip]Y(Carboxymethyl)[Cit][dL][Dab][Cha]VTC[Orn][Aun]-OH; thioether N-14)
6.73	Cc1cccc(C[C@@H]2NC(=O)[C@H](CC(=O)O)NC(=O)[C@H](Cc3ccc(OCC(=O)O)cc3)NC(=O)[C@H](CN)NC(=O)CSC[C@@H](C(=O)N(C)CC(=O)N[C@@H](CCC(=O)O)C(=O)NCCCCCCCCCCC(=O)O)NC(=O)[C@H]([C@@H](C)O)NC(=O)[C@H](C(C)C)NC(=O)[C@H](CC3CCCCC3)NC(=O)[C@H](CCN)NC(=O)[C@@H](CC(C)C)NC(=O)[C@H](CCCN)NC(=O)[C@H](CCCNC(N)=O)NC(=O)[C@H](Cc3ccc(-c4ccccc4)cc3)NC(=O)[C@H](C(C)C)NC2=O)c1 [Compound 2839] ({CH2CO}-[Dap]Y(Carboxymethyl)D[Phe(3-Me)]V[Bip][Cit][Orn][dL][Dab][Cha]VTC[Sar]E[Aun]-OH; thioether N-14)
7.74	Cc1cccc(C[C@@H]2NC(=O)[C@H](CC(=O)O)NC(=O)[C@H](Cc3ccc(OCC(=O)O)cc3)NC(=O)[C@H](CN)NC(=O)CSC[C@@H](C(=O)N[C@@H](CCN)C(=O)NCCCCCCCCCCC(=O)O)NC(=O)[C@H]([C@@H](C)O)NC(=O)[C@H](C(C)(C)C)NC(=O)[C@H](CC3CCCCC3)NC(=O)[C@H](CCN)NC(=O)[C@@H](CC(C)C)NC(=O)[C@H](CCCN)NC(=O)[C@H](CCCNC(N)=O)NC(=O)[C@H](Cc3ccc(-c4ccccc4)cc3)NC(=O)[C@H](C(C)C)NC2=O)c1 [Compound 2840] ({CH2CO}-[Dap]Y(Carboxymethyl)D[Phe(3-Me)]V[Bip][Cit][Orn][dL][Dab][Cha][Tle]TC[Dab][Aun]-OH; thioether N-14)
7.91	Cc1cccc(C[C@@H]2NC(=O)[C@H](CC(=O)O)NC(=O)[C@H](Cc3ccc(OCC(=O)O)cc3)NC(=O)[C@H](CN)NC(=O)CSC[C@@H](C(=O)N[C@@H](CCN)C(=O)NCCCCCCCCCCC(=O)O)NC(=O)[C@H](CCCN)NC(=O)[C@H](C(C)C)NC(=O)[C@H](CC3CCCCC3)NC(=O)[C@H](CCN)NC(=O)[C@@H](CC(C)C)NC(=O)[C@H](CCCN)NC(=O)[C@H](Cc3ccc(O)cc3)NC(=O)[C@H](Cc3ccc(-c4ccccc4)cc3)NC(=O)[C@H](C(C)C)NC2=O)c1 [Compound 2841] ({CH2CO}-[Dap]Y(Carboxymethyl)D[Phe(3-Me)]V[Bip]Y[Orn][dL][Dab][Cha]V[Orn]C[Dab][Aun]-OH; thioether N-14)
7.95	Cc1cccc(C[C@@H]2NC(=O)[C@H](CC(=O)O)NC(=O)[C@H](Cc3ccc(OCC(=O)O)cc3)NC(=O)[C@H](CN)NC(=O)CSC[C@@H](C(=O)N[C@@H](CCN)C(=O)NCCCCCCCCCCC(=O)O)NC(=O)[C@H](CCCN)NC(=O)[C@H](C(C)C)NC(=O)[C@H](CC3CCCCC3)NC(=O)[C@H](CCN)NC(=O)[C@@H](CC(C)C)NC(=O)[C@H](CCCN)NC(=O)[C@H](Cc3ccc(OCC(=O)O)cc3)NC(=O)[C@H](Cc3ccc(-c4ccccc4)cc3)NC(=O)[C@H](C(C)C)NC2=O)c1 [Compound 2842] ({CH2CO}-[Dap]Y(Carboxymethyl)D[Phe(3-Me)]V[Bip]Y(Carboxymethyl)[Orn][dL][Dab][Cha]V[Orn]C[Dab][Aun]-OH; thioether N-14)
